Entries after “also recorded” stand apart in the source; their conditions may differ. Where two headings read alike, the source gives them in different places. Each block holds one compound with its values, some of them ahead of it.
Assays:
[1] = test system: secondary alcohol dehydrogenase enzyme; test: Substrate and cofactor specificity of the purified enzyme; assay type: biochemical, Pseudomonas fluorescens NRRL B-1244; conditions: for oxidation rate / activity as substrate (in words): purified enzyme, NAD^+
Description: The rate of dehydrogenation of the primary and secondary alcohols tested was measured with a fluorescence spectrophotometer by following the formation of reduced NAD^+ (excitation at 340 nm, emission at 460 nm). […] The reaction was initiated by the addition of the substrate alcohol. The product aldehydes or ketones were identified by retention time comparisons and cochromatography with authentic standards using flame ionization gas chromatography (a stainless steel column was maintained isothermally at 110 °C). Specific oxidation rates were expressed as nmoles of product formed per min. per mg of protein.
The purified enzyme from step 5 of Example 2 was used in the procedure of Example 1 to oxidize primary and secondary alcohols, diols and aldehydes. The specificity of the dehydrogenase for the substrates is expressed as nmoles of product formed per min. per 85 µg of protein and as a percentage relative to the oxidation rate of 2-propanol (designated as 100% oxidation rate) in Table V.

[2] = test system: secondary alcohol dehydrogenase enzyme; test: Inhibition of secondary alcohol dehydrogenase activity (oxidation of 2-propanol in the presence of potential inhibitors); assay type: biochemical, Pseudomonas fluorescens NRRL B-1244
Description: The activity of the NAD^+-linked secondary alcohol dehydrogenase in each fraction was measured using a fluorescence spectrophotometer by monitoring the formation of reduced NAD^+ (excitation at 340 nm, emission at 460 nm). The assay system (3 ml) contained 150 µmole sodium phosphate buffer pH 7.0, 1.0 µmole NAD^+, a given amount of enzyme fraction, and 20 µ cmole 2-propanol substrate. […] Protein concentrations in each fraction were determined by the method of O.H. Lowry et al., J. Biol. Chem., 193, 255 (1951).
The oxidation of 2-propanol by the purified extract of secondary alcohol dehydrogenase enzyme was conducted in the presence of a lmM concentration of one of the metal chelating agents and thio-reagents listed in Table VI.

[3] = test system: secondary alcohol dehydrogenase
[4] = test system: secondary alcohol dehydrogenase enzyme; assay type: biochemical, Pseudomonas fluorescens NRRL B-1244
Description: The effect of NAD^+ and 2-propanol concentrations on the enzyme activity was studied at 25 °C in 0.05 M sodium phosphate buffer pH 7.0. 2-Propanol was kept at a saturated level (6.6 mM) for the determination of the Km value for NAD^+; and NAD^+ was maintained at a saturated level (lmM) for determining the Km value for 2-propanol.

[5] = 1 mM inhibitor, oxidation of 2-propanol by purified enzyme

SMILES: CC(O)CCO (stereo not shown) [1,3-butanediol]
oxidation rate / activity as substrate (in words) [1]: highest activity

% Inhibition [2, 5]: 100%
SMILES: c1cnc2c(c1)ccc1cccnc12 [1,10-phenanthroline]

SMILES: CCC(C)O (stereo not shown) [2-butanol]
oxidation rate / activity as substrate (in words) [1]: highest oxidation rate; also recorded: highest activity
% of original activity ([3]; 0.9 M 2-butanol solution): 40%
% of its activity ([3]; 1.1 M 2-butanol solution): 30%

SMILES: CC(C)O [2-propanol]
oxidation rate / activity as substrate (in words) [1]: highest activity
Km ([4]; pH 7, read-out: Km value for 2-propanol): 85 µM

SMILES: O=C(O)c1cc(SSc2ccc([N+](=O)[O-])c(C(=O)O)c2)ccc1[N+](=O)[O-] [5,5'-dithiobis-(2-nitrobenzoate)]
inhibition of enzyme activity (in words) [2]: inhibited
% Inhibition [2, 5]: 100%

SMILES: O=[N+]([O-])c1ccc(O)c2ncccc12 [5-nitro-8-hydroxyquinoline]
inhibition of enzyme activity (in words) [2]: inhibited
% Inhibition [2, 5]: 100%

SMILES: [Cu+2] [Cu^2+]
% Inhibition [2, 5]: 10%

SMILES: [Hg+2] [Hg^2+]
% Inhibition [2, 5]: 100%

SMILES: CCN1C(=O)C=CC1=O [N-ethylmaleimide]
% Inhibition [2, 5]: 33%

oxidation rate with NADP^+ as cofactor relative to NAD^+ ([1]; NADP^+ as cofactor): about 50%
SMILES: NC(=O)c1ccc[n+]([C@@H]2O[C@H](COP(=O)([O-])OP(=O)(O)OC[C@H]3O[C@@H](n4cnc5c(N)ncnc54)[C@H](OP(=O)(O)O)[C@@H]3O)[C@@H](O)[C@H]2O)c1 [NADP^+]

SMILES: NC(=O)c1ccc[n+]([C@@H]2O[C@H](COP(=O)([O-])OP(=O)(O)OC[C@H]3O[C@@H](n4cnc5c(N)ncnc54)[C@H](O)[C@@H]3O)[C@@H](O)[C@H]2O)c1 [NAD^+, nicotinamide adenine dinucleotide]
Km ([4]; 25°C, 0.05 M sodium phosphate buffer pH 7.0, 2-propanol saturated (6.6 mM), read-out: Km value for NAD^+): 8.2 µM

% Inhibition [2, 5]: 0%
SMILES: CC(N)=O [acetamide]

SMILES: CC(C)=O [acetone]
rate of reduction of acetone to propanol relative to the forward reaction [1]: about 20%

% Inhibition [2, 5]: 0%
SMILES: O=C(O)CN(CCN(CC(=O)O)CC(=O)O)CC(=O)O [ethylenediamine tetraacetic acid (EDTA), ethylenediamine tetraacetic acid]

% Inhibition [2, 5]: 0%
SMILES: c1c[nH]cn1 [imidazole]

SMILES: O=C(O)CI [iodoacetic acid]
% Inhibition [2]: 0%

SMILES: O=C(O)c1cc[c]([Hg+])cc1.[OH-] [p-hydroxymercuribenzoate]
inhibition of enzyme activity (in words) [2]: inhibited
% Inhibition [2, 5]: 100%

% Inhibition [2, 5]: 44%
SMILES: NNC(N)=S [thiosemicarbazide]

SMILES: c1ccc(-c2ccccn2)nc1 [α,α'-dipyridyl]
% Inhibition [2, 5]: 40%

From patent EP0098136A2, “Primary and secondary alcohol dehydrogenase enzymes and the use thereof” (priority 1982, dated 1984)
